Positions count from the first letter of the chain named.
What was measured:
Assay type in all cases: cell-based
WT AR = target: T1, WT AR (Homo sapiens, UniProt P10275); experiment: Antagonism in WT AR, AR transactivation reporter gene assay in COS-1 cells, competitive setting with 50 nM testosterone; conditions: 18 h
T1 construct: expressed in transfected cells; host or cells: COS-1
T1 sequence (P10275 1-920): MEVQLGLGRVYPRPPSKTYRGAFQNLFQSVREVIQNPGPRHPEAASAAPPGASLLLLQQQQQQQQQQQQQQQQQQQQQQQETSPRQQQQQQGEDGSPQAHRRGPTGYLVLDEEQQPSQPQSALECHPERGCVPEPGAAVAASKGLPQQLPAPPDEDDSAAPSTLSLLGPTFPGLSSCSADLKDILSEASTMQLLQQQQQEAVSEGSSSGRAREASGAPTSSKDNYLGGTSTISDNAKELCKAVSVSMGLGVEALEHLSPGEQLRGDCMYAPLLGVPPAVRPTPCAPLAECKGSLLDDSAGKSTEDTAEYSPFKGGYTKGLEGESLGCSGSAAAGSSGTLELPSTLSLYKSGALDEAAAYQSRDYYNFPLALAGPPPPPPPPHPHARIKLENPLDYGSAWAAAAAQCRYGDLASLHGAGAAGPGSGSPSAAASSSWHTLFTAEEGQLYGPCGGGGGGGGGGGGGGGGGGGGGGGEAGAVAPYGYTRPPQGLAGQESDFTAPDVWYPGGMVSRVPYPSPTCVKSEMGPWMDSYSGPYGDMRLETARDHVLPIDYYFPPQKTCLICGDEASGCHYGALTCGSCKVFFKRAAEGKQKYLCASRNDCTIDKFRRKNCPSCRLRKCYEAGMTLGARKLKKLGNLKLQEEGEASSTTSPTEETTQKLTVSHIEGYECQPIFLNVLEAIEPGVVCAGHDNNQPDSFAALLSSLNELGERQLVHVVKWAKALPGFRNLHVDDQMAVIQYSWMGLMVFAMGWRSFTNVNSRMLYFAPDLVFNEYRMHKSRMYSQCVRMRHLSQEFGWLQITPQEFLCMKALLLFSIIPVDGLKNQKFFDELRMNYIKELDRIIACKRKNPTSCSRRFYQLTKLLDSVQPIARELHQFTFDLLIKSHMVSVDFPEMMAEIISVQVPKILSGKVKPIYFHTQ
Protocol: After 18 h, reporter gene activities (LUC and beta-galactosidase) were determined according to standard methods. The data are expressed as relative LUC activity (luciferase light units divided by beta-galactosidase A420nm to control for transfection efficiency) of a given compound in relation to the activity of a reference test item (=100%).
Antagonism in WT AR of compounds of the present invention was measured in AR transctivation assay in COS-1 cells in competitive setting using testosterone as a reference agonist as described above. […] Relative LUC activity representing AR-dependent transcription obtained by exposure to testosterone alone was set to 100%.

W741L AR = target: T2, W741L AR (Homo sapiens, UniProt P10275, W742L); experiment: Agonism in W741L mutant AR, AR transactivation assay in COS-1 cells, test compounds alone; conditions: 10 microM, compound alone
T2 construct: expressed in transfected cells; host or cells: COS-1
T2 sequence (P10275 1-920 W742L): T1 sequence (P10275 1-920) with W742L
Protocol: COS-1 (American Type Culture Collection) were cultured in DMEM supplemented with 10% FBS, penicillin (6.25 U/ml) and streptomycin (6.25 μg/ml) and seeded onto 48-well plates (50 000 cells/well) one day before transfection. Transfection media containing 2.5% charcoal-stripped FBS in DMEM was changed on cells 4 h prior to transfection. Cells were transfected with 50 ng of reporter gene plasmid (pPB-286/+32-LUC; PB, probasin promoter), 5 ng of AR expression plasmid (pSG5-hAR), and 5 ng of pCMVβ (an internal, beta-galactosidase control for transfection efficiency and cell growth) using TranslT-LT1 reagent (Mirus Bio Corporation) according to the manufacturer's instructions. […] After 18 h, reporter gene activities (LUC and beta-galactosidase) were determined according to standard methods. The data are expressed as relative LUC activity (luciferase light units divided by beta-galactosidase A420nm to control for transfection efficiency) of a given compound in relation to the activity of a reference test item (=100%).
Agonism in W741L AR of compounds of the present invention was measured in AR transactivation assay in COS-1 cells as described above except that AR expression vector harboring the W741L mutation was used instead of the WT AR. The transfected cells were exposed to test compounds alone.

T877A AR = target: T3, T877A AR (Homo sapiens, UniProt P10275, T878A); experiment: Agonism in T877A mutant AR, AR transactivation assay in COS-1 cells, test compounds alone; conditions: 10 microM, compound alone
T3 construct: expressed in transfected cells; host or cells: COS-1
T3 sequence (P10275 1-920 T878A): T1 sequence (P10275 1-920) with T878A
Description: The transfected cells were exposed to test compounds alone. Testosterone was used as reference agonist, and its' relative LUC activity representing AR-dependent transcription was set to 100%.

Row | SMILES | Relative LUC activity (%) indicating residual androgen activity in relation to testosterone (100%) (WT AR; 1 microM compound) [%] | Relative LUC activity (%) indicating residual androgen activity in relation to testosterone (100%) (WT AR; 10 microM compound) [%] | Relative LUC activity (%) in W741L AR in relation to BIC (100%) (W741L AR) [%] | Relative LUC activity (%) in T877A AR in relation to testosterone (100%) (T877A AR) [%]
1 | N#Cc1ccc(NC(=O)C(O)(CS(=O)(=O)c2ccc(Cl)cc2)c2ccc(Cl)cc2)cc1Cl (stereo not drawn) [Example 18, N-(3-chloro-4-cyanophenyl)-3-[(4-chlorobenzene)sulfonyl]-2-(4-chlorophenyl)-2-hydroxypropanamide] | 7 | 1 | 27 | 6
2 | N#Cc1ccc(S(=O)(=O)CC(O)(C(=O)Nc2ccc([N+](=O)[O-])c(Cl)c2)c2ccc(C(F)(F)F)cc2)cc1F (stereo not drawn) [Example 19, N-(3-chloro-4-nitrophenyl)-3-[(4-cyano,3-fluorobenzene)sulfonyl]-2-hydroxy-2-[4-(trifluoromethyl)phenyl]propanamide] | 11 | 1 | 9 | 2
3 | CCS(=O)(=O)CC(O)(C(=O)Nc1ccc(C#N)c(C(F)(F)F)c1)c1ccc(C(F)(F)F)cc1 (stereo not drawn) [Example 17, N-[4-cyano-3-(trifluoromethyl)phenyl]-3-(ethanesulfonyl)-2-[4-(trifuoromethyl)phenyl]-2-hydroxypropanamide] | 18 | 3 | – | –
4 | CCS(=O)(=O)CC(O)(C(=O)Nc1ccc(C#N)c(C(F)(F)F)c1)c1ccc(F)cc1 (stereo not drawn) [Example 1, N-[4-cyano-3-(trifluoro-methyl)phenyl]-3-(ethanesulfonyl)-2-(4-fluorophenyl)-2-hydroxypropanamide] | – | – | 12 | 14
5 | CC(C)CCS(=O)(=O)CC(O)(C(=O)Nc1ccc(C#N)c(C(F)(F)F)c1)c1ccc(F)cc1 (stereo not drawn) [Example 2, N-[4-cyano-3-(trifluoromethyl)phenyl]-2-(4-fluorophenyl)-2-hydroxy-3-[(3-methylbutane)-sulfonyl]propanamide] | 12 | 3 | – | –
6 | N#Cc1ccc(NC(=O)C(O)(CS(=O)(=O)c2cccc(F)c2)c2ccc(F)c(F)c2)cc1C(F)(F)F (stereo not drawn) [Example 39, N-[4-cyano-3-(trifluoromethyl)phenyl]-2-(3,4-difluorophenyl)-3-[(3-fluorobenzene)sulfonyl]-2-hydroxypropanamide] | 14 | 2 | – | –
7 | COc1ccc(C(O)(CS(=O)(=O)c2cccc(F)c2)C(=O)Nc2ccc(C#N)c(Cl)c2)cc1F (stereo not drawn) [Example 33, N-(3-chloro-4-cyanophenyl)-2-(3-fluoro-4-methoxyphenyl)-3-[(3-fluorobenzene)sulfonyl]-2-hydroxypropanamide] | 5 | 1 | – | –
8 | CCS(=O)(=O)CC(O)(C(=O)Nc1ccc(C#N)c(Cl)c1)c1ccc(F)c(F)c1 (stereo not drawn) [Example 5, N-(3-chloro-4-cyanophenyl)-2-(3,4-difluorophenyl)-3-(ethanesulfonyl)-2-hydroxypropanamide] | – | – | 18 | 9
9 | N#Cc1ccc(NC(=O)C(O)(CS(=O)(=O)c2ccc(F)c(F)c2)c2ccc(F)cc2)cc1Cl (stereo not drawn) [Example 6, N-(3-chloro-4-cyanophenyl)-3-[(3,4-difluorobenzene)sulfonyl]-2-(4-fluorophenyl)-2-hydroxypropanamide] | 7 | 5 | – | –
10 | COc1ccc(C(O)(CS(=O)(=O)c2ccc(F)c(F)c2)C(=O)Nc2ccc(C#N)c(C(F)(F)F)c2)cc1F (stereo not drawn) [Example 22, N-(4-cyano-3-(trifluoromethyl)phenyl)-3-[(3,4-difluorobenzene)sulfonyl]-2-hydroxy-2-[3-fluoro-4-(methoxy)phenyl]propanamide] | 9 | 3 | – | –

Source: patent US8816119B2, “Arylamide derivatives having antiandrogenic properties” (Medeia Therapeutics Ltd, priority 2010, dated 2014)
